Assay results taken from US7091351B2, “Vanadium compounds for treating cancer” (Parker Hughes Institute, priority 1998, dated 2006).

How the values were obtained:
NALM-6 cells = assay: MTT cytotoxicity assay of oxovanadium(IV) compounds, NALM-6; type: cell-based, human; conditions: 48 hr
Protocol: (§1) The cytotoxicity of oxovanadium (W) complexes listed in Table 6 were tested against 9 different human cancer cell lines was performed using the MTT (3-[4,5-dimethylthiazol-2-yl]-2,5-diphenyl tetrazolium bromide) assay (Boehringer Mannheim Corp., Indianapolis, Ind.) as described previously (20). Briefly, exponentially growing tumor cells were seeded into a 96-well plate at a density of 4×10^4cells/well and incubated with medium containing the oxovanadium(IV) compounds concentrations ranging from 0.1 to 250 μM for 48 hours at 37° C. in a humidified 5% CO2 atmosphere. Triplicate wells were used for each treatment. To each well, 10 μl of MTT (0.5 mg/ml final concentration) was added and the plates were incubated at 37° C. for 4 hours to allow MTT to form formazan crystals by reacting with metabolically active cells . The formazan crystals were solubilized overnight at 37° C. in a solution containing 10% SDS in 0.01 M HCl. The absorbence of each well was measured in a microplate reader (Labsystems) at 540 nm and a reference wavelength of 690 nm. To translate the OD540 values into the number of live cells in each well, the OD540 values were compared to those on standard OD540—versus—cell number curves generated for each cell line. The percent survival was calculated using the formula: % survival=Live cell number[test]/Live cell number [control]×100. The IC50 values were calculated by non-linear regression analysis using an Graphpad Prism software version 2.0 (Graphpad Software, Inc., San Diego, Calif.).

[1] = system: ARH77 multiple myeloma cells; assay: MTT cytotoxicity assay of oxovanadium(IV) compounds, ARH77; type: cell-based, human; conditions: 48 hr
Protocol: as §1, with “Briefly, exponentially growing tumor cells were seeded into a 96-well plate at a density of 4×10^4cells/well and incubated with medium containing the oxovanadium(IV) compounds concentrations ranging from 0.1 to 250 μM for 48 hours at 37° C. in a humidified 5% CO2 atmosphere.” left out

**Q.** What does the source list for “bis(4,7-dimethyl-1,10-phenanthroline)sulfatooxovanadium(IV) [Compound 29]”?
**A.** IC50 (NALM-6 cells): 200 ± 30 nM; IC50 [1]: 810 ± 900 nM
